Experimental data published in ChEMBL document CHEMBL1142226, “Impact of physicochemical and structural properties on the pharmacokinetics of a series of alpha1L-adrenoceptor antagonists” (Drug Metab Dispos, 2007).

Experiments:
[1] = Protein binding in Sprague-Dawley rat plasma at 1 ug/ml; type: ADME, cell-free; details: read-out: PPB (converted)
[2] = Protein binding in Beagle dog plasma at 1 ug/ml; type: ADME, cell-free, Canis lupus familiaris; details: read-out: PPB (converted)
[3] = Lipophilicity, log D in 0.1M potassium phosphate buffer at pH 7.4; type: physicochemical
[4] = Dissociation constant, pKa of the compound; type: physicochemical
[5] = Metabolic stability in Sprague-Dawley rat assessed as hepatic extraction ratio; type: ADME, tissue-based; details: liver
[6] = Metabolic stability in Sprague-Dawley rat bile assessed as drug remaining; type: ADME
[7] = Metabolic stability in Sprague-Dawley rat liver microsomes assessed as half life; type: ADME, Microsome
[8] = Drug uptake in Sprague-Dawley rat hepatocytes; type: ADME, cell-based, Hepatocyte
Hepatocyte = assay: Drug uptake in Sprague-Dawley rat hepatocytes assessed per 10^6 cells; type: ADME, cell-based
[9] = Elimination half life in Sprague-Dawley rat at 3 mg/kg, iv; type: ADME, organism-based; design: dose 3 mg/kg, route intravenous; details: in vivo
[10] = Plasma clearance in Sprague-Dawley rat at 3 mg/kg, iv; type: ADME, organism-based; design: dose 3 mg/kg, route intravenous
Rattus norvegicus [11] = assay: Unbound plasma clearance in Sprague-Dawley rat at 3 mg/kg, iv; type: ADME, organism-based; design: dose 3 mg/kg, route intravenous; details: in vivo
[12] = Volume of distribution in Sprague-Dawley rat at 3 mg/kg, iv; type: ADME, organism-based; design: dose 3 mg/kg, route intravenous; details: in vivo
Rattus norvegicus [13] = assay: Unbound volume of distribution in Sprague-Dawley rat at 3 mg/kg, iv; type: ADME, organism-based; design: dose 3 mg/kg, route intravenous; details: in vivo
[14] = Elimination half life in Beagle dog at 0.5 mg/kg, iv; type: ADME, organism-based, Canis lupus familiaris; design: dose 0.5 mg/kg, route intravenous; details: in vivo
[15] = Plasma clearance in Beagle dog at 0.5 mg/kg, iv; type: ADME, organism-based, Canis lupus familiaris; design: dose 0.5 mg/kg, route intravenous
Canis familiaris [16] = assay: Unbound plasma clearance in Beagle dog at 0.5 mg/kg, iv; type: ADME, organism-based, Canis lupus familiaris; design: dose 0.5 mg/kg, route intravenous; details: in vivo
[17] = Volume of distribution in Beagle dog at 0.5 mg/kg, iv; type: ADME, organism-based, Canis lupus familiaris; design: dose 0.5 mg/kg, route intravenous; details: in vivo
Canis familiaris [18] = assay: Unbound volume of distribution in Beagle dog at 0.5 mg/kg, iv; type: ADME, organism-based, Canis lupus familiaris; design: dose 0.5 mg/kg, route intravenous; details: in vivo
Homo sapiens = species: Homo sapiens; assay: Protein binding in human plasma at 1 ug/ml; details: read-out: PPB (converted)
[19] = Elimination half life in Beagle dog at 0.3 mg/kg, iv; type: ADME, organism-based, Canis lupus familiaris; design: dose 0.3 mg/kg, route intravenous; details: in vivo
[20] = Plasma clearance in Beagle dog at 0.3 mg/kg, iv; type: ADME, organism-based, Canis lupus familiaris; design: dose 0.3 mg/kg, route intravenous
[21] = Volume of distribution in Beagle dog at 0.3 mg/kg, iv; type: ADME, organism-based, Canis lupus familiaris; design: dose 0.3 mg/kg, route intravenous; details: in vivo
Canis familiaris [22] = assay: Unbound volume of distribution in Beagle dog at 0.3 mg/kg, iv; type: ADME, organism-based, Canis lupus familiaris; design: dose 0.3 mg/kg, route intravenous; details: in vivo
[23] = Oral bioavailability in Beagle dog at 0.6 mg/kg; type: ADME, organism-based, Canis lupus familiaris; details: in vivo
[24] = Oral absorption in Beagle dog at 0.6 mg/kg, po; type: ADME, organism-based, Canis lupus familiaris; design: dose 0.6 mg/kg, route oral; details: in vivo, read-out: Fabs
[25] = Elimination half life in Sprague-Dawley rat at 0.5 mg/kg, iv; type: ADME, organism-based; design: dose 0.5 mg/kg, route intravenous; details: in vivo
[26] = Plasma clearance in Sprague-Dawley rat at 0.5 mg/kg, iv; type: ADME, organism-based; design: dose 0.5 mg/kg, route intravenous
[27] = Volume of distribution in Sprague-Dawley rat at 0.5 mg/kg, iv; type: ADME, organism-based; design: dose 0.5 mg/kg, route intravenous; details: in vivo
Rattus norvegicus [28] = assay: Unbound volume of distribution in Sprague-Dawley rat at 0.5 mg/kg, iv; type: ADME, organism-based; design: dose 0.5 mg/kg, route intravenous; details: in vivo
[29] = Cmax in Sprague-Dawley rat at 1 mg/kg, po; type: ADME, organism-based; design: dose 1 mg/kg, route oral; details: in vivo
[30] = Tmax in Sprague-Dawley rat at 1 mg/kg, po; type: ADME, organism-based; design: dose 1 mg/kg, route oral; details: in vivo
[31] = Elimination half life in Sprague-Dawley rat at 1 mg/kg, po; type: ADME, organism-based; design: dose 1 mg/kg, route oral; details: in vivo
[32] = Oral bioavailability in Sprague-Dawley rat at 1 mg/kg; type: ADME, organism-based; details: in vivo
[33] = Cmax in human at 0.02 mg/kg, po; type: ADME, organism-based; design: dose 0.02 mg/kg, route oral; details: in vivo
[34] = Tmax in human at 0.02 mg/kg, po; type: ADME, organism-based; design: dose 0.02 mg/kg, route oral; details: in vivo
[35] = Elimination half life in human at 0.02 mg/kg, po; type: ADME, organism-based; design: dose 0.02 mg/kg, route oral; details: in vivo
[36] = Oral bioavailability in human at 0.25 to 1.5 mg/kg; type: ADME, organism-based; details: in vivo
[37] = Metabolic stability in human liver microsomes assessed as half life at 1 uM; type: ADME, Microsome
[38] = Fraction unbound in human liver microsomes at 1 uM; type: ADME, Microsome
Liver microsomes = assay: Unbound intrinsic clearance in human liver microsomes at 1 uM; type: ADME, Microsome
[39] = Metabolic stability in Beagle dog liver microsomes assessed as half life at 1 uM; type: ADME, Canis lupus familiaris, Microsome
[40] = Fraction unbound in Beagle dog liver microsomes at 1 uM; type: ADME, Canis lupus familiaris, Microsome
Liver = assay: Unbound intrinsic clearance in Beagle dog liver microsomes at 1 uM; type: ADME, Canis lupus familiaris, Microsome
[41] = Oral bioavailability in Beagle dog at 2 mg/kg; type: ADME, organism-based, Canis lupus familiaris; details: in vivo
[42] = Oral absorption in Beagle dog at 2 mg/kg, po; type: ADME, organism-based, Canis lupus familiaris; design: dose 2 mg/kg, route oral; details: in vivo, read-out: Fabs
[43] = Antagonist activity at alpha-1L-adrenoceptor in human prostate assessed as inhibition of noradrenaline-mediated contraction; type: functional, tissue-based, Prostate gland
[44] = Antagonist activity at alpha-1-adrenoceptor in rat aorta assessed as inhibition of noradrenaline-mediated contraction; type: functional, tissue-based
[45] = Oral bioavailability in Beagle dog at 4 mg/kg; type: ADME, organism-based, Canis lupus familiaris; details: in vivo
[46] = Oral absorption in Beagle dog at 4 mg/kg, po; type: ADME, organism-based, Canis lupus familiaris; design: dose 4 mg/kg, route oral; details: in vivo, read-out: Fabs
Rattus norvegicus [47] = assay: Unbound plasma clearance in Sprague-Dawley rat at 0.5 mg/kg, iv; type: ADME, organism-based; design: dose 0.5 mg/kg, route intravenous; details: in vivo
[48] = Cmax in Sprague-Dawley rat at 4 mg/kg, po; type: ADME, organism-based; design: dose 4 mg/kg, route oral; details: in vivo
[49] = Tmax in Sprague-Dawley rat at 4 mg/kg, po; type: ADME, organism-based; design: dose 4 mg/kg, route oral; details: in vivo
[50] = Elimination half life in Sprague-Dawley rat at 4 mg/kg, po; type: ADME, organism-based; design: dose 4 mg/kg, route oral; details: in vivo
[51] = Oral bioavailability in Sprague-Dawley rat at 4 mg/kg; type: ADME, organism-based; details: in vivo
[52] = Cmax in human at 0.86 mg/kg, po; type: ADME, organism-based; design: dose 0.86 mg/kg, route oral; details: in vivo
[53] = Tmax in human at 0.86 mg/kg, po; type: ADME, organism-based; design: dose 0.86 mg/kg, route oral; details: in vivo
[54] = Elimination half life in human at 0.86 mg/kg, po; type: ADME, organism-based; design: dose 0.86 mg/kg, route oral; details: in vivo

Compound: COc1cc2c(cc1OC)CN(c1nc(N3CCCN(C(=O)N4CC(O)C(O)C4)CC3)nc3cc(OC)c(OC)cc13)CC2 (configuration not stated)
- fraction unbound at 1 ug/ml [1]: 0.05
- fraction unbound at 1 ug/ml [2]: 0.1
- logD [3]: 4
- pKa [4]: 6.2
- hepatic extraction ratio [5]: 0.7
- Stability [6]: 90%
- half-life [7]: > 2 h
- Km [8]: 6.5 µM
- Vmax (Hepatocyte): 481 pmol/min
- half-life [9]: 1.4 h
- clearance [10]: 135 mL/min/kg
- CL (Rattus norvegicus [11]): 2700 mL/min/kg
- Vd [12]: 9.3 L/kg
- Vd (Rattus norvegicus [13]): 186 L/kg
- half-life [14]: 2.4 h
- clearance [15]: 47 mL/min/kg
- CL (Canis familiaris [16]): 470 mL/min/kg
- Vd [17]: 10 L/kg
- Vd (Canis familiaris [18]): 100 L/kg
- fraction unbound at 1 ug/ml (Homo sapiens): 0.03

Compound: COc1cc2nc(N3CCc4c(cccc4NS(C)(=O)=O)C3)nc(N)c2c(-c2ccccn2)c1OC [TAPRIZOSIN]
- half-life [19]: 9.2 h
- clearance [20]: 5.6 mL/min/kg
- Vd [21]: 4.4 L/kg
- Vd (Canis familiaris [22]): 21 L/kg
- bioavailability [23]: 79%
- Fa [24]: 89%
- half-life [25]: 1 h
- clearance [26]: 22 mL/min/kg
- Vd [27]: 1.7 L/kg
- Vd (Rattus norvegicus [28]): 24 L/kg
- Cmax [29]: 105 ng/mL
- Tmax [30]: 0.5 h
- half-life [31]: 2.9 h
- bioavailability [32]: 42%
- Cmax [33]: 7.5 ng/mL
- Tmax [34]: 1.3 h
- half-life [35]: 11.4 h
- fraction unbound at 1 ug/ml [1]: 0.07
- fraction unbound at 1 ug/ml [2]: 0.21
- bioavailability [36]: 73%
- logD [3]: 3
- pKa [4]: 6.7
- half-life at 1 µM [37]: 0.683 h
- fraction unbound at 1 µM [38]: 0.564
- CL (Liver microsomes): 13 mL/min/kg
- half-life at 1 µM [39]: 0.5 h
- fraction unbound at 1 µM [40]: 0.602
- CL (Liver): 83 mL/min/kg
- fraction unbound at 1 ug/ml (Homo sapiens): 0.07

Compound: COc1cc2nc(N3CCCN(C(=O)N4CCOCC4)CC3)nc(N)c2cc1-c1ccccn1
- bioavailability [41]: 35%
- Fa [42]: 65%
- fraction unbound at 1 ug/ml [2]: 0.22
- logD [3]: 2.1
- pKa [4]: 6.6
- half-life [14]: 2.3 h
- clearance [15]: 23 mL/min/kg
- CL (Canis familiaris [16]): 200 mL/min/kg
- Vd [17]: 4.3 L/kg
- Vd (Canis familiaris [18]): 20 L/kg
- half-life at 1 µM [37]: 0.0833 h
- fraction unbound at 1 µM [38]: 0.637
- CL (Liver microsomes): 96 mL/min/kg
- half-life at 1 µM [39]: 0.233 h
- fraction unbound at 1 µM [40]: 0.791
- CL (Liver): 162 mL/min/kg

Compound: COc1cc2nc(N3CCN(C(=O)C4CCCO4)CC3)nc(N)c2cc1OC (configuration not stated) [TERAZOSIN]
- pA2 [43]: 9.8
- pA2 [44]: 10

Compound: COc1cc2nc(N3CCCN(C(=O)N4CCOCC4)CC3)cc(N)c2c(-c2ccc(F)cc2)c1OC
- bioavailability [45]: 71%
- Fa [46]: 100%
- half-life [25]: 1 h
- clearance [26]: 91 mL/min/kg
- CL (Rattus norvegicus [47]): 61250 mL/min/kg
- Vd [27]: 5.6 L/kg
- Vd (Rattus norvegicus [28]): 70 L/kg
- Cmax [48]: 14 ng/mL
- Tmax [49]: 4 h
- half-life [50]: 2.8 h
- bioavailability [51]: 11%
- Cmax [52]: 63 ng/mL
- Tmax [53]: 0.7 h
- half-life [54]: 12 h
- fraction unbound at 1 ug/ml [1]: 0.08
- fraction unbound at 1 ug/ml [2]: 0.04
- logD [3]: 1.8
- pKa [4]: 8.5
- half-life [14]: 6.3 h
- clearance [15]: 15 mL/min/kg
- CL (Canis familiaris [16]): 536 mL/min/kg
- Vd [17]: 4.8 L/kg
- Vd (Canis familiaris [18]): 96 L/kg
- half-life at 1 µM [37]: 0.1 h
- fraction unbound at 1 µM [38]: 0.331
- CL (Liver microsomes): 154 mL/min/kg
- half-life at 1 µM [39]: 0.5 h
- fraction unbound at 1 µM [40]: 0.602
- CL (Liver): 100 mL/min/kg
- fraction unbound at 1 ug/ml (Homo sapiens): 0.06
